Measurements published in patent US6861561B2, “Substituted aromatic policyclic tertiary-heteroalkylamines useful for inhibiting cholesteryl ester transfer protein activity” (G. D. Searle & Co., priority 1999, dated 2005).

target: T1, Human recombinant CETP (Homo sapiens, UniProt P11597); test: Assay of CETP Inhibition Using Purified Components (Reconstituted Buffer Assay); type: biochemical; conditions: transfer of [3H]CE from HDL to LDL; 2 hours at 37° C.
T1 construct: made in house; host or cells: CHO cells (serum-free conditioned medium)
T1 sequence (P11597 18-493): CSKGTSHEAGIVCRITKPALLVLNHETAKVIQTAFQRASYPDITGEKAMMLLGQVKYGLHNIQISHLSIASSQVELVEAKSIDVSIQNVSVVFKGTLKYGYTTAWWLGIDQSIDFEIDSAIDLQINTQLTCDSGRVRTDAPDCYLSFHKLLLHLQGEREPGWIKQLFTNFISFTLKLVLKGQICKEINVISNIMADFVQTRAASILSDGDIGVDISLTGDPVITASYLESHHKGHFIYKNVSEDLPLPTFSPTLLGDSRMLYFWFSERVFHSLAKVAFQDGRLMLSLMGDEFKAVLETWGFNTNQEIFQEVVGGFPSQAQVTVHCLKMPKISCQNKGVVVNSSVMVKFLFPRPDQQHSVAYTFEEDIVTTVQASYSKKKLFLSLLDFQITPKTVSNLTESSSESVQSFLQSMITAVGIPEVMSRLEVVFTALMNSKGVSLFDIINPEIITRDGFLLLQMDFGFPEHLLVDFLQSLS
Method: Assay of CETP Inhibition Using Purified Components (Reconstituted Buffer Assay)
The ability of compounds to inhibit CETP activity was assessed using an in vitro assay that measured the rate of transfer of radiolabeled cholesteryl ester ([^3H]CE) from HDL donor particles to LDL acceptor particles. Details of the assay are provided by Glenn, K. C. et al. (Glenn and Melton, “Quantification of Cholesteryl Ester Transfer Protein (CETP): A) CETP Activity and B) Immunochemical Assay of CETP Protein,” Meth. Enzymol., 263, 339-351 (1996)). Human recombinant CETP can be obtained from the serum-free conditioned medium of CHO cells transfected with a cDNA for CETP and purified as described by Wang, S. et al. (J. Biol. Chem. 267, 17487-17490 (1992)). To measure CETP activity, [^3H]CE-labeled-HDL, LDL, CETP and assay buffer (50 mM tris(hydroxymethyl)aminomethane, pH 7.4; 150 mM sodium chloride; 2 mM ethylenediamine-tetraacetic acid (EDTA); 1% bovine serum albumin) were incubated in a final volume of 200 μL, for 2 hours at 37° C. in 96 well plates. Inhibitors were included in the assay by diluting from a 10 mM DMSO stock solution into 16% (v/v) aqueous DMSO so that the final concentration of inhibitor was 800 μM. The inhibitors were then diluted 1:1 with CETP in assay buffer, and then 25 μL of that solution was mixed with 175 μL of lipoprotein pool for assay. Following incubation, LDL was differentially precipitated by the addition of 50 μL of 1% (w/v) dextran sulfate/0.5 M magnesium chloride, mixed by vortex, and incubated at room temperature for 10 minutes. A potion of the solution (200 μL) was transferred to a filter plate (Millipore). After filtration, the radioactivity present in the precipitated LDL was measured by liquid scintillation counting. […] The rate of [^3H]CE transfer using this assay was linear with respect to time and CETP concentration, up to 25-30% of [^3H]CE transferred.
This value was defined as the IC50.

SMILES	IC50 [µM]
OCC(c1ccc(C(F)(F)F)cc1)N(Cc1cccc(OC(F)(F)F)c1)c1cccc(Oc2ccccc2)c1 (stereo not shown) [1B, 2-[(3-phenoxy)phenyl[[(3-trifluoromethoxy)phenyl]methyl]amino]-2-[(4-trifluoromethyl)phenyl]ethanol]	6
OC(CN(Cc1cccc(OC(F)(F)F)c1)c1cccc(Oc2ccccc2)c1)c1ccc(C(F)(F)F)cc1 (stereo not shown) [EX-1A, 2-[(3-phenoxy)phenyl[[(3-trifluoromethoxy)phenyl]methyl]amino]-1-[(4-trifluoromethyl)phenyl]ethanol]	18
CCCC(O)CN(Cc1cccc(OC(F)(F)F)c1)c1cccc(Oc2ccccc2)c1 (stereo not shown) [Example 2]	3.6
OC(CN(Cc1cccc(OC(F)(F)F)c1)c1cccc(Oc2ccccc2)c1)c1ccccc1 (stereo not shown) [Example 3]	44
C=CC(O)CN(Cc1cccc(OC(F)(F)F)c1)c1cccc(Oc2ccccc2)c1 (stereo not shown) [Example 4]	> 50
OC(Cc1ccccc1)CN(Cc1cccc(OC(F)(F)F)c1)c1cccc(Oc2ccccc2)c1 (stereo not shown) [Example 5]	> 50
OC(COc1ccc(Cl)cc1)CN(Cc1cccc(OC(F)(F)F)c1)c1cccc(Oc2ccccc2)c1 (stereo not shown) [Example 6]	> 100
OC(COCc1ccco1)CN(Cc1cccc(OC(F)(F)F)c1)c1cccc(Oc2ccccc2)c1 (stereo not shown) [Example 7]	> 100
OCC(c1cccc(C(F)(F)F)c1)N(Cc1cccc(OC(F)(F)F)c1)c1cccc(Oc2ccccc2)c1 (stereo not shown) [Example 8]	7
COC(=O)C(C)(O)CN(Cc1cccc(OC(F)(F)F)c1)c1cccc(Oc2ccccc2)c1 (stereo not shown) [Example 9]	24
OC(CN(Cc1cccc(OC(F)(F)C(F)F)c1)c1cccc(Oc2ccccc2)c1)c1ccccc1 (stereo not shown) [Example 10]	57
OC1CCCCC1N(Cc1cccc(OC(F)(F)F)c1)c1cccc(Oc2ccccc2)c1 (stereo not shown) [Example 26]	15
FC(F)(F)Oc1cccc(CN(CCc2ccc(C(F)(F)F)cc2)c2cccc(Oc3ccccc3)c2)c1 [Example 27, N-[(3-phenoxy)phenyl]-N-[[(3-trifluoromethoxy)phenyl]methyl]-2-[(4-trifluoromethyl)phenyl]ethanamine]	> 100
FC(CN(Cc1cccc(OC(F)(F)F)c1)c1cccc(Oc2ccccc2)c1)c1ccc(C(F)(F)F)cc1 (stereo not shown) [Example 28, N-[(3-phenoxy)phenyl]-N-[[(3-trifluoromethoxy)phenyl]methyl]-2-[(4-trifluoromethyl)phenyl]-2-fluoro-ethanamine]	> 100
CCCC(O)CN(Cc1cccc(OC(F)(F)F)c1)Cc1cccc(OC(F)(F)F)c1 (stereo not shown) [compound 11]	30
OC(Cc1ccccc1)CN(Cc1cccc(OC(F)(F)F)c1)Cc1cccc(OC(F)(F)F)c1 (stereo not shown) [compound 12]	14
COCC(O)CN(Cc1cccc(OC(F)(F)F)c1)Cc1cccc(OC(F)(F)F)c1 (stereo not shown) [compound 13]	80
CC(O)CN(Cc1cccc(OC(F)(F)F)c1)Cc1cccc(OC(F)(F)F)c1 (stereo not shown) [compound 14]	90
CCOC(=O)C(O)CN(Cc1cccc(OC(F)(F)F)c1)Cc1cccc(OC(F)(F)F)c1 (stereo not shown) [compound 15]	> 100
OCC(O)CN(Cc1cccc(OC(F)(F)F)c1)Cc1cccc(OC(F)(F)F)c1 (stereo not shown) [compound 16]	> 100
OC(COc1ccccc1)CN(Cc1cccc(OC(F)(F)F)c1)Cc1cccc(OC(F)(F)F)c1 (stereo not shown) [compound 17]	> 100
OC(COc1ccc(Cl)cc1)CN(Cc1cccc(OC(F)(F)F)c1)Cc1cccc(OC(F)(F)F)c1 (stereo not shown) [compound 18]	> 100
OC(CN1CCOCC1)CN(Cc1cccc(OC(F)(F)F)c1)Cc1cccc(OC(F)(F)F)c1 (stereo not shown) [compound 19]	> 100
O=C1c2ccccc2C(=O)N1CC(O)CN(Cc1cccc(OC(F)(F)F)c1)Cc1cccc(OC(F)(F)F)c1 (stereo not shown) [compound 20]	> 100
COc1ccc(OCC(O)CN(Cc2cccc(OC(F)(F)F)c2)Cc2cccc(OC(F)(F)F)c2)cc1 (stereo not shown) [compound 21]	> 100
